The values below come from patent US11174252B2, “Heterocyclic compounds as kinase inhibitors” (priority 2018, dated 2021).

One experiment has as its target FMS kinase (Homo sapiens (Human), UniProt P07333). The experiment is described as follows: LanthaScreen kinase assay (ATP, fluorescent-PolyGT substrate, TR-FRET). The class given is biochemical.
In a further experiment the test system is Hs-578T. The experiment is described as follows: Cancer cell proliferation assay, single agent. It is filed as cell-based. Particulars: Homo sapiens, Treatment Duration 24 h.
In another experiment the test system is DU4475. In words: Cancer cell proliferation assay, single agent. Particulars: Homo sapiens, DU-4475, 168 h, read-out: IC50 DU4475. It is filed as cell-based.
The next experiment addresses PI3Kδ kinase (Homo sapiens (Human), UniProt O00329). The experiment is described as follows: PI3Kδ kinase ADP-Glo assay (Reaction Biology Corporation). The settings on record: read-out: PI3Kδ IC50.
Another experiment deals with A549. In words: Cancer cell proliferation assay, single agent. The class given is cell-based. Particulars: Homo sapiens, A549, 72 h, read-out: IC50 A549.
The next experiment has as its target CDK6 (Homo sapiens (Human), UniProt Q00534). The experiment is described as follows: biochemical. It is filed as biochemical.
The next experiment deals with HCT-116. In words: Cancer cell proliferation assay, single agent. The class given is cell-based. The settings on record: Homo sapiens, Treatment Duration 72 h, read-out: IC50 HCT116.
The next experiment has as its system MCF-7. The experiment is described as follows: Cancer cell proliferation assay, single agent. It is filed as cell-based. Particulars: Homo sapiens, MCF7; Treatment Duration 72 h; read-out: IC50 MCF-7.
Experiment [1] concerns pRb (Ser780 phosphorylation state of RB1) in MCF-7 cells. In words: Determination of pRb levels (Ser780 phosphorylation of RB1, ELISA) in MCF-7 cells. The class given is cell-based. The settings on record: Homo sapiens, 24 h. The method, then:
[…] of the retinoblastoma protein (pRb) by cyclin D:Cdk4/6 complexes results in […] pRb, which is a clinically relevant biomarker associated with CDK4 or CDK6 inhibition. As a confirmatory measure of functional activity of CDK4/6, the Ser780 phosphorylation state of RB1 was assessed. MCF-7 cells were plated at 2.5×10^5 to 3.0×10^6 cells/well in 6-well cell-culture plates and incubated at 37° C. for 24 h in MEM medium supplemented with 10% FBS. Cells were treated for 24 h with a medium containing test compound at various concentrations (e.g., 0.01, 0.1, 1 μM) or with DMSO (≤1%) in duplicate. After incubation period, the media was removed, and cells were rinsed once with ice-cold PBS and lysed with 0.2 mL of Cell Lysis Buffer containing 1 mM PMSF and Protease Inhibitor. Protein concentration was estimated following Bradford method. The lysis and the pRB measurements were performed following the manufacturer's ELISA kit protocols and buffers (Cell Signaling Technology, Cat. No.: 13016C). pRb inhibition of test compounds were calculated as percentage of vehicle control.

The next experiment relates to ZR-75-30. The experiment is described as follows: Cancer cell proliferation assay, single agent. The class given is cell-based. Particulars: Homo sapiens, Treatment Duration 24 h.
The subject of the next experiment is BT-549. In words: Cancer cell proliferation assay, single agent. The class given is cell-based. Particulars: Homo sapiens, BT-549, 24 h, read-out: IC50 BT-549.
A further experiment has as its target CDK4 (Homo sapiens (Human), UniProt P11802). The experiment is described as follows: In vitro kinase inhibition, luminescence (ADP-Glo) with retinoblastoma substrate. It is filed as biochemical.

Chain of FMS kinase (P07333 20-972): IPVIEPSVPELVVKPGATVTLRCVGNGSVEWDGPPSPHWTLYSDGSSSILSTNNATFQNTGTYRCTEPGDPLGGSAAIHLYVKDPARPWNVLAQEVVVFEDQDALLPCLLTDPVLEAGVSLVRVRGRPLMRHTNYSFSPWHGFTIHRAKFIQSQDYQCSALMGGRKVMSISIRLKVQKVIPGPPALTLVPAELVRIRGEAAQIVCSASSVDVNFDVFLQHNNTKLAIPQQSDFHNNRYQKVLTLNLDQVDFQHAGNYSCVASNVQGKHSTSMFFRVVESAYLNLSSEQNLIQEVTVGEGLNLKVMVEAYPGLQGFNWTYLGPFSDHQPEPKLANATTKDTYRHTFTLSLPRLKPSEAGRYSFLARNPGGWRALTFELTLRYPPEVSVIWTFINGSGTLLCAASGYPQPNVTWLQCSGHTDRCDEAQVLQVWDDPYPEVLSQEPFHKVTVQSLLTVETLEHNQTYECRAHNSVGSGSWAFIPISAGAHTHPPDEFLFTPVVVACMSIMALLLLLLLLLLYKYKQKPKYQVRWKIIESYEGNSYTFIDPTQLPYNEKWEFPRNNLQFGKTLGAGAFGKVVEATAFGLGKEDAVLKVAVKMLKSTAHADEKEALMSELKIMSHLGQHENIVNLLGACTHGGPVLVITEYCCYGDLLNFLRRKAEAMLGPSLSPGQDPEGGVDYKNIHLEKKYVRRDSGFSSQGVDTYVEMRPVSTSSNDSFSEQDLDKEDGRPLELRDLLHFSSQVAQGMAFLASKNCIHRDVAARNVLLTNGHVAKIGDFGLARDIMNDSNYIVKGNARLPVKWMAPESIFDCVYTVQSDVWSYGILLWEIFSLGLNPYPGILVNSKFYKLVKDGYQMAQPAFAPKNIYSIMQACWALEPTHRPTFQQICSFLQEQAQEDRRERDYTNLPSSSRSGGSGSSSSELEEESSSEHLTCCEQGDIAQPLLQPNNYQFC
Chain of CDK4 (P11802 whole entry): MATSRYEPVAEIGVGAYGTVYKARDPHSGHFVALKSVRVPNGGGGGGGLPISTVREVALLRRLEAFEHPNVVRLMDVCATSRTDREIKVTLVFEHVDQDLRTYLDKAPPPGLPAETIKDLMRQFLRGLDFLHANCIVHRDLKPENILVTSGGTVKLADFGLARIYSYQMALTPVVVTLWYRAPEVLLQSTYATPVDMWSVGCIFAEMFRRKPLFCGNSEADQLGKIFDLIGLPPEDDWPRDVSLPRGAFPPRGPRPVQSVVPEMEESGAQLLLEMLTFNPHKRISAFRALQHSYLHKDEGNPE
Chain of CDK4 (P24385 whole entry partner): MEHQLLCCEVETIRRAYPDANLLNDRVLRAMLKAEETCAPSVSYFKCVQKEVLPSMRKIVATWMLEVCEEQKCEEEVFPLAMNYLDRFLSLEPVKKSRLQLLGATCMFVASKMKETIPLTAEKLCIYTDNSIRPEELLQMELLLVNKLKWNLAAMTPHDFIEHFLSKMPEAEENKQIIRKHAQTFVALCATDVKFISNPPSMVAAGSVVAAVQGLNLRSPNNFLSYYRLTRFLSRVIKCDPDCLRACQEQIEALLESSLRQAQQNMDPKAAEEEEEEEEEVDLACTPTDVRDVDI
Chain of PI3Kδ kinase (O00329 whole entry): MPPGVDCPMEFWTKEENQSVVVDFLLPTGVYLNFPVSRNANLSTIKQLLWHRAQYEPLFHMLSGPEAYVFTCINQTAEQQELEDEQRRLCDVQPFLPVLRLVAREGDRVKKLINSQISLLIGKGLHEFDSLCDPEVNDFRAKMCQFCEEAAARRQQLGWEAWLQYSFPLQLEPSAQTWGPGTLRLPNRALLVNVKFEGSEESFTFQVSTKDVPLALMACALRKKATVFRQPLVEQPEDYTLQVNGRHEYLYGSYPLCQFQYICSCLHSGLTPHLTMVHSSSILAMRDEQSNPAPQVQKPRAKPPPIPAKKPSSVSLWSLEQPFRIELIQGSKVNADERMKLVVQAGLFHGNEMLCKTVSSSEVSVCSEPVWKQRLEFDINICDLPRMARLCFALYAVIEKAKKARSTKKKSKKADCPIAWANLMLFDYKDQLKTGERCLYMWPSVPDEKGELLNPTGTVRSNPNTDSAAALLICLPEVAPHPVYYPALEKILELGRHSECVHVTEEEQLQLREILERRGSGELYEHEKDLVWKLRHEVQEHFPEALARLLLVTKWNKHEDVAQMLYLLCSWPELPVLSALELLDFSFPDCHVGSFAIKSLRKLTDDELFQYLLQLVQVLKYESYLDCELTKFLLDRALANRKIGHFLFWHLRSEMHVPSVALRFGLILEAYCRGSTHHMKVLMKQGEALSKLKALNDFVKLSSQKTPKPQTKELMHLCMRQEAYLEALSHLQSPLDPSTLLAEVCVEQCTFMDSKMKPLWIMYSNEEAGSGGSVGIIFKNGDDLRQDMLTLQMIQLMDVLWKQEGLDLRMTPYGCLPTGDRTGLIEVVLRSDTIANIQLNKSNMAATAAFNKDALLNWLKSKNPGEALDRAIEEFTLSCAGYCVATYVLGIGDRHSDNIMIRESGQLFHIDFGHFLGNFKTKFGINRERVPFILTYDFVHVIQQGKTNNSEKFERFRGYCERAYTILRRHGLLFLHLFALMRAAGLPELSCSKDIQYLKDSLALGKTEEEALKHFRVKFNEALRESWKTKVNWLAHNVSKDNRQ
Chain of PI3Kδ kinase (P27986 whole entry partner): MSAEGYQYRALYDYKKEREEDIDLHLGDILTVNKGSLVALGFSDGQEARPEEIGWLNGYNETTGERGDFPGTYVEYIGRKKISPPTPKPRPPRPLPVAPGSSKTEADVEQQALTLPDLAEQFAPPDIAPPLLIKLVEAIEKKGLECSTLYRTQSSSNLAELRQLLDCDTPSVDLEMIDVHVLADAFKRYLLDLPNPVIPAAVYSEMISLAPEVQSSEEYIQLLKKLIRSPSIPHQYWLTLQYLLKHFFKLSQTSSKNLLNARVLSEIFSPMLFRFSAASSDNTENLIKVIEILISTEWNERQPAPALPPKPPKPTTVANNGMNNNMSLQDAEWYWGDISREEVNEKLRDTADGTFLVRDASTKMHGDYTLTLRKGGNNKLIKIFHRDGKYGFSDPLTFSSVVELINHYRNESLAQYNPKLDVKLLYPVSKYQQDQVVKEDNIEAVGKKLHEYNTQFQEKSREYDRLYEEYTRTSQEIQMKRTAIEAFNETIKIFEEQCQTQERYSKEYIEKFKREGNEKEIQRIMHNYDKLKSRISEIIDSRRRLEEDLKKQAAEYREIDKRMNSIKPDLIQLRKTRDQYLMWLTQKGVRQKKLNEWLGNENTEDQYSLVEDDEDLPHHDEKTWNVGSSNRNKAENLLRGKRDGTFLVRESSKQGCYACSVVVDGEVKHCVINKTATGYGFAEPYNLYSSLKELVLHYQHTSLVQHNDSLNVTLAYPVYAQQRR

On to `CC(C)N1CCOc2c(F)cc(-c3nc(Nc4ccc(N5CCNCC5)cn4)ncc3F)cc21` [Compound 1, 5-fluoro-4-(8-fluoro-4-isopropyl-3,4-dihydro-2H-benzo[b][1,4]oxazin-6-yl)-N-(5-(piperazin-1-yl)pyridin-2-yl)pyrimidin-2-amine], for which the IC50 against FMS kinase worked out at 1330 nM; in the experiment on Hs-578T it was 60 nM; with DU4475 it was 575 nM; on PI3Kδ kinase, 3360 nM; in the experiment with A549, 65 nM; on CDK6, 0.2 nM. The half-inhibitory concentration (IC50) in the experiment with HCT-116 was determined as 515 nM; in the experiment on MCF-7 it was 68 nM; with ZR-75-30, 49 nM; in the experiment with BT-549, 3200 nM; at CDK4 it was 0.2 nM. Besides, the inhibition at 0.01 µM in [1] (MCF7, 0.01 μM) is 77%. Besides, in [1] (MCF7, 0.1 μM), 0.1 µM produced 80% inhibition. In addition, the inhibition at 1 µM in experiment [1] (MCF7, 1 μM) came out at 89%.
